Results as given in patent US20260356804A1, “SODIUM CHANNEL BLOCKING COMPOUNDS, DERIVATIVES THEREOF, AND METHODS OF THEIR USE” (LATIGO BIOTHERAPEUTICS, INC., priority 2022, published 2026).
Like-named read-outs stand apart in the source and are kept apart here.

Biological target: T1, human Nav1.8/b3 (Homo sapiens, UniProt Q9Y5Y9)
T1 construct: expressed in transfected cells; host or cells: CHO
Assay: Compound Profiling Human NaV1.8/β3 Cell Line—SyncroPatch384PE Assay (automated patch clamp, stably transfected CHO cells)
Assay type: cell-based
Settings: Nav1.8/b3 CHO cells, third set of compounds

[1] = P1 (IC50, resting state block), P1 measurement, resting state block, holding potential −120 mV
[2] = P2 (IC50, inactivated state block), P2 measurement, inactivated state block, inactivation step −35 mV 10 sec
[3] = P1 measurement, resting state block, holding potential −120 mV, read-out: P1 (IC50, resting state block)
[4] = P2 measurement, inactivated state block, inactivation step −35 mV 10 sec, read-out: P2 (IC50, inactivated state block)

T1 sequence (Q9Y5Y9 whole entry): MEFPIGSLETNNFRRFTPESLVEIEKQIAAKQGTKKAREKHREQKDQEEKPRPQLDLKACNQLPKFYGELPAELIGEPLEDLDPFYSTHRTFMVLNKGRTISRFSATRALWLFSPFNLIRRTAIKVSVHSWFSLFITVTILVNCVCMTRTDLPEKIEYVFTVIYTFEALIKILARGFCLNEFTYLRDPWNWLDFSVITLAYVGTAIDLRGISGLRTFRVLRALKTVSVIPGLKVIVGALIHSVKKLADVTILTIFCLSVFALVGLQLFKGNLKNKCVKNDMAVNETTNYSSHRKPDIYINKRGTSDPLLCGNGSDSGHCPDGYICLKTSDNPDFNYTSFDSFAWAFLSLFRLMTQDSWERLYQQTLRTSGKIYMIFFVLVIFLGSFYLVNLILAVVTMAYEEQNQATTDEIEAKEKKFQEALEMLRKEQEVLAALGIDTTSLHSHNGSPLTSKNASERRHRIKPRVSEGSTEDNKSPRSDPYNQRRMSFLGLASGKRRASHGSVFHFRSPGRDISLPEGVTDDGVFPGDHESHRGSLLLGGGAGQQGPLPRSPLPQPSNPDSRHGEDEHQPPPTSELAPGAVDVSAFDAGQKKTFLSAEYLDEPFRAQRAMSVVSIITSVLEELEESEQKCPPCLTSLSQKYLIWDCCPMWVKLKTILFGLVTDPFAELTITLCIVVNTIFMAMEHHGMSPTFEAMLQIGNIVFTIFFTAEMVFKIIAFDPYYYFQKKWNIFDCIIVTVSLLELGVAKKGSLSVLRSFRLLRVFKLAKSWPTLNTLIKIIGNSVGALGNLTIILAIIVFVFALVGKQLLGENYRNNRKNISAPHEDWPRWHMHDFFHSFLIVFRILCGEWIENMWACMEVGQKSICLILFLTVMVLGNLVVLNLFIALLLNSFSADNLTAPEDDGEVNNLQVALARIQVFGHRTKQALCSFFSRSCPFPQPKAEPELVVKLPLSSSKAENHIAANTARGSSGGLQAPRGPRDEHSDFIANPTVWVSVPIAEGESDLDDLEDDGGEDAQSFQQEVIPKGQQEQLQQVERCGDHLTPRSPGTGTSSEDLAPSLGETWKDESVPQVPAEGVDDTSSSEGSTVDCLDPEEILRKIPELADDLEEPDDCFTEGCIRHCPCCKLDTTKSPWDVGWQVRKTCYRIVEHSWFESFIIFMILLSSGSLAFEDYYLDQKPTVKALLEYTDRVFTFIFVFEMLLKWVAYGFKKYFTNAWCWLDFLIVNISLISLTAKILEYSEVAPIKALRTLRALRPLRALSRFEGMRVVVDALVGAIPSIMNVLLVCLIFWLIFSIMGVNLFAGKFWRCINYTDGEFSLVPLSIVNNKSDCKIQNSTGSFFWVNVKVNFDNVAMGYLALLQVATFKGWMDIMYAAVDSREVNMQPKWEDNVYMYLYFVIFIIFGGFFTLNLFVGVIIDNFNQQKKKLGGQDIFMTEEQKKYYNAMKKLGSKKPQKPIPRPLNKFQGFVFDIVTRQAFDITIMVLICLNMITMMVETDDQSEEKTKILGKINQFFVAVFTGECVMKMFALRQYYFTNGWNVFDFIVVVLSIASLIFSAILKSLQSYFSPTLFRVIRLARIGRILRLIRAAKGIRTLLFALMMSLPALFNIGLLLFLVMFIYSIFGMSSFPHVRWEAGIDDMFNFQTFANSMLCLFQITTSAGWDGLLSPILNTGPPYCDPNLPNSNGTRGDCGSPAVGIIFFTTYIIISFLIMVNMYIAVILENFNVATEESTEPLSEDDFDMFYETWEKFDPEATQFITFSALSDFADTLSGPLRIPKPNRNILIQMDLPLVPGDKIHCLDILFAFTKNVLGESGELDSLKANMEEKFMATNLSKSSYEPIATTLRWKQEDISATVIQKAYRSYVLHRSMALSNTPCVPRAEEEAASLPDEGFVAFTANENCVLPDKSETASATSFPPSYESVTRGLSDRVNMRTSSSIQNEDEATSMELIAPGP
T1 sequence (Q9NY72 23-215 partner): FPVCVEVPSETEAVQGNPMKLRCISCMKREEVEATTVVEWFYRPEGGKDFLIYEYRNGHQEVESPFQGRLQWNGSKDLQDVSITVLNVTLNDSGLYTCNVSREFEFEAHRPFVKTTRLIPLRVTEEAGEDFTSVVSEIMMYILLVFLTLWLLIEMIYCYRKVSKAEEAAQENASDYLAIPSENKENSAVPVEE

Row | IC50 [1] [nM] | IC50 [2] [nM] | Compound | further results
1 | 5 to 50 | 5 to 50 | Cc1nc(F)ccc1Oc1ncc(C(F)(F)F)c(C)c1C(=O)Nc1ccc(F)c([S+](C)[O-])c1 (stereo not drawn) [Example 102C] | 
2 | 50 to 100 | 50 to 100 | CCCc1cnc(Oc2ccc(F)nc2C)c(C(=O)Nc2cccc([S@](C)(=N)=O)c2)c1C [Example 103C] | 
3 | 50 to 100 | 50 to 100 | Cc1nc(F)ccc1Oc1ncc(C(C)C)c(C)c1C(=O)Nc1cccc([S@](C)(=N)=O)c1 [Example 104C] | 
4 | < 5 | < 5 | Cc1nc(F)ccc1Oc1nc(C2CC2)c(C(F)(F)F)c(C)c1C(=O)Nc1ccnc([S@@](C)(=N)=O)c1 [Example 105C] | 
5 | < 5 | < 5 | Cc1nc(F)ccc1Oc1nc(C2CC2)c(C(F)(F)F)c(C)c1C(=O)Nc1ccnc([S@](C)(=N)=O)c1 [Example 106C] | 
6 |  |  | Cc1nc(F)ccc1Oc1nc(C2CC2)c(C(F)(F)F)c(C)c1C(=O)Nc1cccc([S@@](C)(=N)=O)c1 [Example 107C] | IC50 [3]: < 5 nM; IC50 [4]: < 5 nM
7 |  |  | Cc1nc(F)ccc1Oc1nc(C2CC2)c(C(F)(F)F)c(C)c1C(=O)Nc1cccc([S@](C)(=N)=O)c1 [Example 108C] | IC50 (read-out: P1 (IC50, resting state block), P1 measurement, resting state block, holding potential −120 mV): < 5 nM; IC50 (read-out: P2 (IC50, inactivated state block), P2 measurement, inactivated state block, inactivation step −35 mV 10 sec): < 5 nM
8 |  |  | CNCCN=[S@](C)(=O)c1cccc(NC(=O)c2c(Oc3ccc(F)nc3C)ncc(C(F)(F)F)c2C)c1 [Example 109C] | IC50 [3]: < 5 nM; IC50 [4]: < 5 nM
9 | 5 to 50 | 5 to 50 | Cc1nc(F)ccc1Oc1cnc(C(F)(F)F)c(F)c1C(=O)Nc1cccc([S@](C)(=N)=O)c1 [Example 110C] | 
10 | > 200 | > 200 | Cc1nc(F)ccc1Oc1ncc(C(F)(F)F)c(C)c1C(=O)Nc1ccc(C(N)=O)nc1 [Example 111C] | 
11 | > 200 | > 200 | Cc1nc(F)ccc1Oc1ncc(C(F)(F)F)c(C)c1C(=O)NC12CC(C(N)=O)(C1)C2 [Example 112C] | 
12 | 5 to 50 | 5 to 50 | Cc1nc(F)ccc1Oc1nc(C(F)(F)F)c(C#N)c(C)c1C(=O)Nc1cccc([S@](C)(=N)=O)c1 [Example 113C] | 
13 | > 200 | > 200 | Cc1nc(F)ccc1Oc1ncc(C(F)F)c(C)c1C(=O)Nc1ccnc([S@@](C)(=N)=O)c1 [Example 114C] | 
14 |  |  | Cc1nc(F)ccc1Oc1ncc(C(F)F)c(C)c1C(=O)Nc1ccnc([S@](C)(=N)=O)c1 [Example 115C] | IC50 [3]: > 200 nM; IC50 [4]: > 200 nM
15 | 5 to 50 | 5 to 50 | COc1ccc(Oc2ncc(C(F)(F)F)c(C)c2C(=O)Nc2cccc([S@@](C)(=N)=O)c2)c(C)n1 [Example 116C] | 
16 | > 200 | > 200 | Cc1nc(O)ccc1Oc1ncc(C(F)(F)F)c(C)c1C(=O)Nc1cccc([S@](C)(=N)=O)c1 [Example 117C] | 
17 | < 5 | < 5 | Cc1nc(F)ccc1Oc1ncc(C(F)(F)F)c(C)c1C(=O)Nc1ccc(C(N)=O)cc1 [Example 118C] | 
18 | < 5 | < 5 | Cc1nc(F)ccc1Oc1ncc(C(F)(F)F)c(C)c1C(=O)Nc1cccc(C(N)=O)c1 [Example 119C] | 
19 |  |  | Cc1nc(F)ccc1Oc1ncc(C(F)(F)F)c(C)c1C(=O)Nc1ccnc(C(N)=O)c1 [Example 120C] | IC50 [3]: 5 to 50 nM; IC50 [4]: 5 to 50 nM
20 | 50 to 100 | 50 to 100 | Cc1ccc(Oc2ncc(C(F)(F)F)c(C)c2C(=O)Nc2cccc([S@@](C)(=N)=O)c2)c(F)n1 [Example 121C] | 
21 | 5 to 50 | 5 to 50 | Cc1nc(F)ccc1Oc1ncc(I)c(C)c1C(=O)Nc1cccc([S@](C)(=N)=O)c1 [Example 122C] | 
22 | < 5 | < 5 | Cc1nc(F)ccc1Oc1ncc(C(F)(F)F)c(C)c1C(=O)Nc1cccc(S(C)(=O)=O)c1 [Example 123C] | 
23 | 5 to 50 | 5 to 50 | Cc1nc(F)ccc1Oc1ncc(-c2ccc(F)c(F)c2)c(C)c1C(=O)Nc1cccc(S(C)(=N)=N)c1 [Example 124C] | 
24 | > 200 | > 200 | COc1cc(C#N)ccc1Oc1ncc(-c2ccc(C(F)F)cc2)c(C)c1C(=O)Nc1ccnc(S(C)(=N)=O)c1 (stereo not drawn) [Example 125C] | 
